Assays:
GSK3β = target: T1, GSK3β (Homo sapiens, UniProt P49841); test: GSK3β inhibition, luminescence Kinase-Glo assay; assay type: biochemical; settings: four concentrations 0.1, 1, 10, 30 μM; ATP 1 μM; 1 h
T1 construct: purchased Promega V1991
Experimental: GSK3β inhibitory activity was evaluated using the method developed by Baki[66], with modifications. Compounds were dissolved in assay buffer, containing 40 mM Tris (pH 7.5), 20 mM MgCl2, 0.1 mg/ml BSA (bovine serum albumin) and 50 μM dithiothreitol (DTT) at the desired concentrations. Firstly, 10 μl of enzyme (10 ng) and 10 μl of each compound were mixed for 30 min. Then, 20 μl of a mixture of ATP (1 μM) and GSK3β peptidic substrate were added to each well. The mixture was incubated for 60 min at 30 °C. Thereafter, the remaining ATP concentration was measured with the Kinase-Glo system following instructions from the supplier. Luminescence was measured in an Orion II microplate luminometer (Berthold, Germany) as relative light units (RLU). […] IC50 values were calculated by non-linear regression analysis of individual concentration-response curves using GraphPad Prism 5.0 software (San Diego, CA, USA).
The ability of the compounds to inhibit GSK3β was evaluated using the method developed by Baki^9 with some modifications. The tested compounds were dissolved in assay buffer, containing 40 mM Tris (pH 7.5), 20 mM MgCl2, 0.1 mg/ml BSA (bovine serum albumin) and 50 µM dithiothreitol (DTT), to achieve final reaction concentrations of 0.1, 1, 10 and 30 µM. […] The GSK3β inhibition assay was performed in white 96-well plates, in duplicates. Firstly, 10 µl of enzyme (10 ng) were added to each well, followed by 10 µl of the compounds at the desired concentration. After 30 minutes, 20 µl of a mixture of ATP and GSK3β peptidic substrate were added to each well, achieving a final concentration of 1 µM of ATP and 25 of µM peptidic substrate. The mixture was incubated at 30 °C for 60 minutes. Once the reaction was finished, the remaining ATP concentration was measured by adding 40 µl/well of Kinase-Glo reagent. The luminescence was measured in an Orion II microplate luminometer (Berthold, Germany) as relative light units (RLU). The luminescence recorded is proportional to the amount of ATP present in each well.
Apparent Ki for each compound were calculated from GSK3β Km value for ATP, applying the Cheng-Prusoff equation^10,11 in its simplified form: Ki = IC50/(1+([S]/Km)), in which S refers to the ATP concentration and Km is the Michaelis constant of the substrate for GSK3β.

Nrf2 = test: Nrf2-dependent luciferase reporter assay in AREc32 cell line; assay type: cell-based; settings: Arec32, 24 h, AREc32 cells, read-out: CD (concentration required to double the luciferase reporter activity)
Experimental: Thereafter, we tested the ability of the compounds to induce the Nrf2 transcription factor. We used an Nrf2-dependent luciferase reporter assay in the AREc32 cell line[45]. Cells were cultured for 24 h and then treated with increasing concentrations of compounds 5a–t (0.3, 3, 10 and 30 μM), including the known inducer sulforaphane, containing an isothiocyanate motive as positive control.
AREc32 cells were plated in 96-well white plates (2 × 10^4 cells/well). After 24 h, cells were incubated with increasing concentrations of each compound in duplicate for 24 h. AREc32 cells express constitutively the plasmid pGL-8xARE that implements 8 copies of the EpRE sequences followed by luciferase reporter gen. Therefore, Nrf2 induction is related to the activation of EpRE sequences, expressing luciferase at the same extent as EpRE sequences are activated. The Luciferase Assay System (Promega E1500), was used according to provider protocol and luminescence was quantified in an Orion II microplate luminometer (Berthold, Germany). Fold induction of luciferase activity was normalized to basal conditions. Data are expressed as CD values, expressing the concentration required to double the luciferase activity. CD values are calculated from dose-response curves generated from fold induction of control conditions vs. inducer concentration and fitted by non-linear regression and data interpolated to 2-fold induction concentration.
Breast cancer cells stably transfected to express luciferase after EpRE sequences MCF-7/AREc32 named AREc32, were kindly provided by Dr. C. Roland Wolf (University of Dundee, UK).^14 AREc32 cells were maintained in DMEM with high glucose-glutamax, supplemented with 10 % FBS, 1 % penicillin-streptomycin (10,000 units), and geneticin (0.8 mg/ml G418) at 37 °C and in a 5 % CO2- air atmosphere.^14
AREc32 cells are constitutively transfected with the pGL-8xARE luciferase reporter gene, inserted after EpRE sequences. Thus, Nrf2 translocation to the nucleus induces the activation of the EpRE sequences, expressing their target phase II antioxidant genes, and expressing luciferase at the same extent.^15 AREc32 cells were plated in 96-well white plates (2X10^4 cells/well). After 24 h, cells were incubated with increasing concentrations of each compound in duplicate for 24 h (dissolved in DMSO to give a final 0.1 % vol/vol concentration of vehicle). Each plate included non-treated cells as basal luciferase expression and tBHQ (10 µM) as positive control. TBHQ is a potent Nrf2 inducer used as control in the development of the AREc32 cells.^14 Transfected clones are selected using G418. AREc32 cells express constitutively the plasmid pGL-8xARE that implements 8 copies of the EpRE sequences followed by a luciferase reporter gene. Therefore, the induction of Nrf2 is proportional to the activation of EpRE sequences, expressing luciferase at the same extent as EpRE sequences are activated. Luciferase production is then assessed by a bioluminescence assay. The Luciferase Assay System (Promega E1500), was used according to the Promega protocol and luminescence was quantified in an Orion II microplate luminometer (Berthold, Germany). Relative Light Units (RLU) were recorded for the contents of each well. Fold induction of luciferase activity was calculated by dividing the RLU obtained for the tests wells for each treatment by the average RLU obtained for the basal conditions. Data are expressed as CD values, expressing the concentration required to double the basal luciferase activity, used to quantify the Nrf2 induction potency. CD values are calculated from dose-response curves generated from fold induction of control conditions vs. inducer concentration and fitted by non-linear regression and data interpolated to value the 2-fold induction concentration, using GraphPad Prism software (San Diego, CA, USA).

primary rat glial cells = test: ROS production in LPS-stimulated primary glial cultures (H2DCFDA); assay type: cell-based; settings: Glial cell, 24 h pre-incubation, 18 h co-incubation with LPS, 3 h with fluorescent dye, read-out: IC50 ROS reduction
Excerpt: Therefore, we envisaged the study of compounds 5a–t as potential anti-inflammatory agents. We used primary rat glial cells treated with lipopolysaccharide (LPS) to induce the production of nitrites and ROS as a model of glial activation. Nitrite production is directly proportional to the expression of the iNOS, that is over-expressed when LPS activates glial cells. ROS production is proportional to NOX activation after stimulation with LPS. Results are summarized in Table 2 as IC50s of nitrite production reduction and ROS production reduction. We have included sulforaphane as control in all experiments (see the Supporting Information).
Besides the increase in nitrite production, it is well known that LPS stimulation of microglia also induces the activation of NOX, which induces superoxide free radical production. In fact, this mechanism is synergistic with the expression of iNOS and the production of nitrites. In this respect, there is a body of evidence showing that NOX activation is a major contributor to ROS oxidative stress and neuronal death in AD[57][58]. […] In general, potency to reduce ROS production increased from ortho to para and meta as observed above.
(§1) Primary glial cells were cultured in bottom transparent 96-well black plates following standard protocol. Cells were pre-incubated with the corresponding compound at the selected concentrations, for 24 hours, and therafter, co-incubated with the corresponding compound and LPS (1 μM) during 18 h more. Then, treatments were removed and cells were loaded with the fluorescent probe 2′,7′-dichlorodihydrofluorescein diacetate (H2DCFDA) (10 μM) for 45 minutes in serum free glial culture medium. All experiments included cells treated with culture medium alone (basal). Cells were washed twice with culture medium and fluorescence intensity was recorded in a Fluostar Optima multiwall pate reader (BMG Labtech, Offenburg, Germany) at 485/520 nm as excitation and emission wavelengths respectively, each hour, during 3 hours period. Data were normalized with respect to basal conditions that were considered as 100%.
as §1, with “µM)” for “μM)”, “2',7'-dichlorodihydrofluorescein” for “2′,7′-dichlorodihydrofluorescein”
Mixed glial cultures were obtained from cerebral cortex of 2-5 day-old Sprague-Dawley rats. After removal of blood vessels and meninges, the forebrains were dissociated in DMEM/F12 medium. After mechanical dissociation, cells were plated (3x10^5 cells/ml) in DMEM/F12 medium with 20% fetal bovine serum (FBS) and 1 % penicillin/streptomycin (10,000 units), at 37 °C and in a 5 % CO2-supplemented air atmosphere. After 5 days, medium was substituted by DMEM/F12 medium with 10 % FBS. Cells were cultured for 7-10 days before treatment.

T1 sequence (P49841 whole entry): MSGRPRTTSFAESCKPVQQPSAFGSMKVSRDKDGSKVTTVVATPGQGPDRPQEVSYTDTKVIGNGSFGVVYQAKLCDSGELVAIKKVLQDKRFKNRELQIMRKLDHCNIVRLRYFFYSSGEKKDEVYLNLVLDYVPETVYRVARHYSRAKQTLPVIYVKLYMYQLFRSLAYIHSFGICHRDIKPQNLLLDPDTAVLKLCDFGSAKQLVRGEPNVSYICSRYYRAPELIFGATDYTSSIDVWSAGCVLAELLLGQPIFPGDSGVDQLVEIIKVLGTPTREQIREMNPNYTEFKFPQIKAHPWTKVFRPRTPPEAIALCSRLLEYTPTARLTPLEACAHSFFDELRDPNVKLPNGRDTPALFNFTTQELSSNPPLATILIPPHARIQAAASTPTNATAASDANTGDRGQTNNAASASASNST

| Compound | IC50 (GSK3β) | EC50 (Nrf2) | IC50 (primary rat glial cells) |
| --- | --- | --- | --- |
| Cc1n[nH]c2c1C(c1cccs1)C(C#N)=C(N)O2 (stereo not drawn) [Compound 5r, 6-Amino-3-methyl-4-(thiophen-2-yl)-2,4-dihydropyrano[2,3-c]pyrazole-5-carbonitrile] | > 30 µM | 17.6 ± 8.4 µM | > 60 µM |
| Cc1[nH]nc2c1C(c1cccnc1)C(C#N)=C(N)O2 (stereo not drawn) [Compound 5s, 6-Amino-3-methyl-4-(pyridin-3-yl)-2,4-dihydropyrano[2,3-c]pyrazole-5-carbonitrile] | > 30 µM | 8.91 ± 2.2 µM | 15.2 ± 3.73 µM |

Reference: paper PMC5374710, “Discovery of the first dual GSK3β inhibitor/Nrf2 inducer. A new multitarget therapeutic strategy for Alzheimer’s disease” (Scientific Reports, 2017)
